Laboratory results as given in patent US5208240A, “8-substituted purines as selective adenosine receptor agents” (Merrell Dow Pharmaceuticals Inc., priority 1991, dated 1993).

Columns and labels:
A1-adenosine receptor = assay: Adenosine A1 receptor binding (method of Goodman et al.)
Experimental: (§1) IC50 values for A1 -adenosine receptor binding is determined according to the method of Goodman et al. [Mol. Pharmacol. 21:329-35, 1982]. IC50 values for A2 -adenosine receptor binding is determined according to the method of Bruns et al. [Mol. Pharmacol. 29:331-46, 1986].

A2-adenosine receptor = biological target: T1, A2-adenosine receptor (Rattus norvegicus, UniProt P30543); assay: Adenosine A2 receptor binding (method of Bruns et al.)
T1 construct: from tissue
Experimental: as §1

T1 sequence (P30543 whole entry): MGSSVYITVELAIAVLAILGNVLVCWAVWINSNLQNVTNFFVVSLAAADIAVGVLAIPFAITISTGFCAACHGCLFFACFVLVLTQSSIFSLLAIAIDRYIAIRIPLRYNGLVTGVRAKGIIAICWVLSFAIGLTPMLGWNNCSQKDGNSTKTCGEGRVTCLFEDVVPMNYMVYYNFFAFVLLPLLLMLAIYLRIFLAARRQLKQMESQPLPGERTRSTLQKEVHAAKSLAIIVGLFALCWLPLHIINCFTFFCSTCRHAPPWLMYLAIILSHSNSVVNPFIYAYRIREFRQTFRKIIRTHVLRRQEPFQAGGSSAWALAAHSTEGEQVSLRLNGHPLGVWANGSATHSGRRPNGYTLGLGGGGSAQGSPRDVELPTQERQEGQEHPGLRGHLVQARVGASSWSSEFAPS

Compound | IC50 (A1-adenosine receptor) [nM] | IC50 (A2-adenosine receptor) [nM]
CCCn1c(=O)c2nc(C(C)Cc3ccc(OCC(=O)NCCN)cc3)[nH]c2n(CCC)c1=O (single isomer, unassigned; (-)) [Compound 100991, (-)-N-(2-Aminoethyl)-2-[4-[2-(2,3,6,9-tetrahydro-1,3-dipropyl-2,6-dioxo-1H-purin-8-yl)propyl]phenoxy]-acetamide] | 10 | 300
CCCn1c(=O)c2nc(C(CC)c3ccc(OCC(=O)O)cc3)[nH]c2n(CCC)c1=O (stereo not drawn) [Compound 101673, 2-[4-[1-(2,3,6,9-Tetrahydro-1,3-dipropyl-2,6-dioxo-1H-purin-8-yl)propyl]phenoxy]acetic acid] | 1180 | > 10000
CCCn1c(=O)c2nc(C(C)Cc3ccc(OCC(=O)NCCN)cc3)[nH]c2n(CCC)c1=O (single isomer, unassigned; (+)) [Compound 101993, (+)-N (2-Aminoethyl)-2-[4-[2-(2,3,6,9-tetrahydro-1,3-dipropyl-2,6-dioxo-1H-purin-8-yl)propyl]phenoxy]-acetamide] | 60 | 1800
CCCn1c(=O)c2nc(C(C)Cc3ccc(OCC(=O)NCCN)cc3)[nH]c2n(CCC)c1=O (stereo not drawn) [Compound 101345, N-(2-Aminoethyl)-2-[4-[2-(2,3,6,9-tetrahydro-1,3-dipropyl-2,6-dioxo-1H-purin-8-yl)propyl]phenoxy]-acetamide] | 14 | 36
CCCn1c(=O)c2nc(C(CC)c3ccc(OCC(=O)NCCN)cc3)[nH]c2n(CCC)c1=O (stereo not drawn) [Compound 102130, N-(2Aminoethyl)-2-[4-[1-(2,3,6,9-tetrahydro-1,3-dipropyl-2,6-dioxo-1H-purin-8-yl)propyl]phenoxy]-acetamide] | 4.4 | 60
CCCn1c(=O)c2nc(C(C)Cc3ccc(OCC(=O)O)cc3)[nH]c2n(CCC)c1=O (stereo not drawn) [Compound 101699, 2-[4-[2-(2,3,6,9-Tetrahydro-1,3-dipropyl-2,6-dioxo-1H-purin-8-yl)propyl]phenoxy]acetic acid] | 327 | 5700
